From US8802597B2, “Herbicidal pyrimidines” (E I du Pont de Nemours and Company, priority 2003, dated 2014)
Where two headings read alike, the source gives them in different places.

How the values were obtained:
Assay in all cases: Test C pre/postemergence
Type in all cases: in vivo
[1] = test system: crabgrass (Digitaria sanguinalis); settings: Digitaria sanguinalis; for pest or weed control at 31 g/ha: 31 g ai/ha; for pest or weed control at 62 g/ha: 62 g ai/ha; for pest or weed control at 125 g/ha: 125 g ai/ha; for pest or weed control at 250 g/ha: 250 g ai/ha
How it was run: (§1)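 Applications: preemergence onto seeded soil and postemergence onto 1- to 4-leaf seedlings, compound carried in non-phytotoxic solvent plus surfactant. Kept in greenhouse 12 to 14 days. Scored visually relative to untreated controls, 0 (no effect) to 100 (complete control).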

[2] = test system: velvetleaf (Abutilon theophrasti); settings: Abutilon theophrasti; for pest or weed control at 31 g/ha: 31 g ai/ha; for pest or weed control at 62 g/ha: 62 g ai/ha; for pest or weed control at 125 g/ha: 125 g ai/ha; for pest or weed control at 250 g/ha: 250 g ai/ha
How it was run: as §1

[3] = test system: cocklebur (Xanthium strumarium); settings: Xanthium strumarium; for pest or weed control at 31 g/ha: 31 g ai/ha; for pest or weed control at 62 g/ha: 62 g ai/ha; for pest or weed control at 125 g/ha: 125 g ai/ha; for pest or weed control at 250 g/ha: 250 g ai/ha
How it was run: as §1

[4] = test system: lambsquarters (Chenopodium album); settings: Chenopodium album; for pest or weed control at 31 g/ha: 31 g ai/ha; for pest or weed control at 62 g/ha: 62 g ai/ha; for pest or weed control at 125 g/ha: 125 g ai/ha; for pest or weed control at 250 g/ha: 250 g ai/ha
How it was run: as §1

[5] = test system: bermudagrass (Cynodon dactylon); settings: Cynodon dactylon; for pest or weed control at 31 g/ha: 31 g ai/ha; for pest or weed control at 62 g/ha: 62 g ai/ha; for pest or weed control at 125 g/ha: 125 g ai/ha; for pest or weed control at 125 g/ha / pest or weed control at 250 g/ha: scale 0 to 100; for pest or weed control at 250 g/ha: 250 g ai/ha
How it was run: as §1

corn (Zea mays) = settings: Zea mays; for Corn plant response rating (crop injury, 0 = no effect, 100 = complete kill) at 31 g/ha: 31 g ai/ha; for Corn plant response rating (crop injury, 0 = no effect, 100 = complete kill) at 62 g/ha: 62 g ai/ha; for Corn plant response rating (crop injury, 0 = no effect, 100 = complete kill) at 125 g/ha: 125 g ai/ha; for Corn plant response rating (crop injury, 0 = no effect, 100 = complete kill) at 250 g/ha: 250 g ai/ha
How it was run: as §1

[6] = test system: goosegrass (Eleusine indica); settings: Eleusine indica; for pest or weed control at 31 g/ha: 31 g ai/ha; for pest or weed control at 62 g/ha: 62 g ai/ha; for pest or weed control at 125 g/ha: 125 g ai/ha; for pest or weed control at 250 g/ha: 250 g ai/ha
How it was run: as §1

[7] = post-emergence, Postemergence, scale 0 to 100 (0 no effect, 100 complete control), read-out: Crabgrass plant response rating
[8] = pre-emergence, Preemergence, scale 0 to 100, 0 no effect, 100 complete control, read-out: Plant response rating, Crabgrass
[9] = pre-emergence, Preemergence, scale 0 to 100, read-out: Plant response rating, Crabgrass
[10] = post-emergence, Postemergence, scale 0 to 100 (0 no effect, 100 complete control), read-out: Velvetleaf plant response rating
[11] = pre-emergence, Preemergence, scale 0 to 100, 0 no effect, 100 complete control, read-out: Plant response rating, Velvetleaf
[12] = pre-emergence, Preemergence, scale 0 to 100, read-out: Plant response rating, Velvetleaf
[13] = post-emergence, Postemergence, scale 0 to 100 (0 no effect, 100 complete control), read-out: Cocklebur plant response rating
[14] = pre-emergence, Preemergence, scale 0 to 100, 0 no effect, 100 complete control, read-out: Plant response rating, Cocklebur
[15] = pre-emergence, Preemergence, scale 0 to 100, read-out: Plant response rating, Cocklebur
[16] = post-emergence, Postemergence, scale 0 to 100 (0 no effect, 100 complete control), read-out: Lambsquarters plant response rating
[17] = pre-emergence, Preemergence, scale 0 to 100, 0 no effect, 100 complete control, read-out: Plant response rating, Lambsquarters
[18] = pre-emergence, Preemergence, scale 0 to 100, read-out: Plant response rating, Lambsquarters
[19] = post-emergence, Postemergence, read-out: Plant response rating, Bermudagrass
[20] = pre-emergence, Preemergence, scale 0 to 100, 0 no effect, 100 complete control, read-out: Plant response rating, Bermudagrass
[21] = pre-emergence, Preemergence, read-out: Plant response rating, Bermudagrass
[22] = post-emergence, Postemergence, scale 0 to 100 (0 no effect, 100 complete control), read-out: Corn plant response rating
[23] = pre-emergence, Preemergence, scale 0 to 100, 0 no effect, 100 complete control, read-out: Plant response rating, Corn
[24] = post-emergence, Postemergence, scale 0 to 100 (0 no effect, 100 complete control), read-out: Goosegrass plant response rating
[25] = pre-emergence, Preemergence, scale 0 to 100, 0 no effect, 100 complete control, read-out: Plant response rating, Goosegrass
[26] = pre-emergence, Preemergence, scale 0 to 100, read-out: Plant response rating, Goosegrass

COC(=O)c1nc(C2CC2)nc(N)c1Cl [Compound 9, methyl 6-amino-5-chloro-2-cyclopropyl-4-pyrimidinecarboxylate]
pest or weed control at 31 g/ha ([1]; post-emergence, Postemergence, read-out: Plant response rating (scale of 0 to 100), Crabgrass): 60% | pest or weed control at 62 g/ha [1, 7]: 70% | pest or weed control at 125 g/ha [1, 7]: 75% | pest or weed control at 250 g/ha ([1]; post-emergence, Postemergence, scale 0 to 100, read-out: Plant response rating, Crabgrass): 80% | pest or weed control at 31 g/ha [1, 8]: 20% | pest or weed control at 62 g/ha [1, 8]: 95% | pest or weed control at 125 g/ha [1, 9]: 95% | pest or weed control at 250 g/ha [1, 9]: 100% | pest or weed control at 31 g/ha ([2]; post-emergence, Postemergence, read-out: Plant response rating (scale of 0 to 100), Velvetleaf): 0% | pest or weed control at 62 g/ha [2, 10]: 75% | pest or weed control at 125 g/ha [2, 10]: 80% | pest or weed control at 250 g/ha ([2]; post-emergence, Postemergence, scale 0 to 100, read-out: Plant response rating, Velvetleaf): 95% | pest or weed control at 31 g/ha [2, 11]: 70% | pest or weed control at 62 g/ha [2, 11]: 95% | pest or weed control at 125 g/ha [2, 12]: 100% | pest or weed control at 250 g/ha [2, 12]: 100% | pest or weed control at 31 g/ha ([3]; post-emergence, Postemergence, read-out: Plant response rating (scale of 0 to 100), Cocklebur): 40% | pest or weed control at 62 g/ha [3, 13]: 85% | pest or weed control at 125 g/ha [3, 13]: 100% | pest or weed control at 250 g/ha ([3]; post-emergence, Postemergence, scale 0 to 100, read-out: Plant response rating, Cocklebur): 100% | pest or weed control at 31 g/ha [3, 14]: 75% | pest or weed control at 62 g/ha [3, 14]: 80% | pest or weed control at 125 g/ha [3, 15]: 100% | pest or weed control at 250 g/ha [3, 15]: 100% | pest or weed control at 31 g/ha ([4]; post-emergence, Postemergence, read-out: Plant response rating (scale of 0 to 100), Lambsquarters): 90% | pest or weed control at 62 g/ha [4, 16]: 95% | pest or weed control at 125 g/ha [4, 16]: 100% | pest or weed control at 250 g/ha ([4]; post-emergence, Postemergence, scale 0 to 100, read-out: Plant response rating, Lambsquarters): 100% | pest or weed control at 31 g/ha [4, 17]: 95% | pest or weed control at 62 g/ha [4, 17]: 100% | pest or weed control at 125 g/ha [4, 18]: 100% | pest or weed control at 250 g/ha [4, 18]: 100% | pest or weed control at 31 g/ha ([5]; post-emergence, Postemergence, read-out: Plant response rating (scale of 0 to 100), Bermudagrass): 60% | pest or weed control at 62 g/ha ([5]; post-emergence, Postemergence, scale 0 to 100 (0 no effect, 100 complete control), read-out: Bermudagrass plant response rating): 65% | pest or weed control at 125 g/ha [5, 19]: 70% | pest or weed control at 250 g/ha [5, 19]: 80% | pest or weed control at 31 g/ha [5, 20]: 100% | pest or weed control at 62 g/ha [5, 20]: 100% | pest or weed control at 125 g/ha [5, 21]: 100% | pest or weed control at 250 g/ha [5, 21]: 100% | Corn plant response rating (crop injury, 0 = no effect, 100 = complete kill) at 31 g/ha (corn (Zea mays); post-emergence, Postemergence, read-out: Plant response rating (scale of 0 to 100), Corn): 45% | Corn plant response rating (crop injury, 0 = no effect, 100 = complete kill) at 62 g/ha (corn (Zea mays); [22]): 55% | Corn plant response rating (crop injury, 0 = no effect, 100 = complete kill) at 125 g/ha (corn (Zea mays); [22]): 65% | Corn plant response rating (crop injury, 0 = no effect, 100 = complete kill) at 250 g/ha (corn (Zea mays); post-emergence, Postemergence, scale 0 to 100): 95% | Corn plant response rating (crop injury, 0 = no effect, 100 = complete kill) at 31 g/ha (corn (Zea mays); [23]): 0% | Corn plant response rating (crop injury, 0 = no effect, 100 = complete kill) at 62 g/ha (corn (Zea mays); [23]): 5% | Corn plant response rating (crop injury, 0 = no effect, 100 = complete kill) at 125 g/ha (corn (Zea mays); pre-emergence, Preemergence, scale 0 to 100, read-out: Plant response rating, Corn): 60% | Corn plant response rating (crop injury, 0 = no effect, 100 = complete kill) at 250 g/ha (corn (Zea mays); pre-emergence, Preemergence, scale 0 to 100): 75% | pest or weed control at 31 g/ha ([6]; post-emergence, Postemergence, read-out: Plant response rating (scale of 0 to 100), Goosegrass): 0% | pest or weed control at 62 g/ha [6, 24]: 0% | pest or weed control at 125 g/ha [6, 24]: 40% | pest or weed control at 250 g/ha ([6]; post-emergence, Postemergence, scale 0 to 100, read-out: Plant response rating, Goosegrass): 45% | pest or weed control at 31 g/ha [6, 25]: 0% | pest or weed control at 62 g/ha [6, 25]: 0% | pest or weed control at 125 g/ha [6, 26]: 20% | pest or weed control at 250 g/ha [6, 26]: 50%
